Numbers after ± are expanded uncertainties.
Assay: activity coefficient (dimensionless); of the first substance listed, at infinite dilution; xn = mol fraction of the nth substance listed
Conditions: Liquid, Chromatography, x1 = 0

SMILES	activity coefficient (303.15 K)	activity coefficient (313.15 K)	activity coefficient (323.15 K)	activity coefficient (333.15 K)	activity coefficient (343.15 K)	activity coefficient (353.15 K)	activity coefficient (363.15 K)	activity coefficient (303.15 K, 101 kPa)	activity coefficient (313.15 K, 101 kPa)	activity coefficient (323.15 K, 101 kPa)	activity coefficient (333.15 K, 101 kPa)	activity coefficient (343.15 K, 101 kPa)	activity coefficient (353.15 K, 101 kPa)	activity coefficient (363.15 K, 101 kPa)
C1CCCCC1 [cyclohexane] + CCCCCCCCn1cc[n+](C)c1.O=[N+]([O-])[O-]	6.52 ± 0.23	6.27 ± 0.22	5.89 ± 0.21	5.58 ± 0.2	5.27 ± 0.19	5.09 ± 0.19	4.93 ± 0.18							
ClC(Cl)Cl [trichloromethane] + CCCCCCCCn1cc[n+](C)c1.O=[N+]([O-])[O-]	0.17	0.18	0.19 ± 0.09	0.2 ± 0.09	0.21 ± 0.09	0.22 ± 0.09	0.23 ± 0.09							
ClCCl [dichloromethane] + CCCCCCCCn1cc[n+](C)c1.O=[N+]([O-])[O-]	0.32 ± 0.09	0.33 ± 0.09	0.34 ± 0.09	0.36 ± 0.09	0.37 ± 0.09	0.38 ± 0.09	0.39 ± 0.09							
CCc1ccccc1 [ethylbenzene] + CCCCCCCCn1cc[n+](C)c1.O=[N+]([O-])[O-]								2.05 ± 0.11	2.06 ± 0.11	2.06 ± 0.11	2.07 ± 0.11	2.07 ± 0.11	2.08 ± 0.11	2.09 ± 0.11
Cc1ccccc1 [toluene] + CCCCCCCCn1cc[n+](C)c1.O=[N+]([O-])[O-]	1.41 ± 0.1	1.41 ± 0.1	1.42 ± 0.1	1.43 ± 0.1	1.44 ± 0.1	1.45 ± 0.1	1.46 ± 0.1							
C1CCOC1 [tetrahydrofuran] + CCCCCCCCn1cc[n+](C)c1.O=[N+]([O-])[O-]	1.03 ± 0.09	1.02 ± 0.09	1.01 ± 0.09	1 ± 0.09	0.99 ± 0.09	0.98 ± 0.09	0.97 ± 0.09							
CCCCC [pentane] + CCCCCCCCn1cc[n+](C)c1.O=[N+]([O-])[O-]	8.5 ± 0.3	7.8 ± 0.28	7.45 ± 0.26	6.94 ± 0.25	6.46 ± 0.23	6.19 ± 0.22	5.77 ± 0.21							
CC(C)CC(C)(C)C [2,2,4-trimethylpentane] + CCCCCCCCn1cc[n+](C)c1.O=[N+]([O-])[O-]	18.5 ± 0.66	16.8 ± 0.6	15.4 ± 0.55	14.1 ± 0.51	13.3 ± 0.48	12.3 ± 0.44	11.4 ± 0.41							
Cc1ccc(C)cc1 [1,4-dimethylbenzene] + CCCCCCCCn1cc[n+](C)c1.O=[N+]([O-])[O-]	1.98 ± 0.11	1.99 ± 0.11	2 ± 0.11	2.01 ± 0.11	2.01 ± 0.11	2.02 ± 0.11	2.03 ± 0.11							
CC(C)=O [acetone] + CCCCCCCCn1cc[n+](C)c1.O=[N+]([O-])[O-]	0.84 ± 0.09	0.83 ± 0.09	0.81 ± 0.09	0.79 ± 0.09	0.77 ± 0.09	0.76 ± 0.09	0.74 ± 0.09							
CCCCCCCC [octane] + CCCCCCCCn1cc[n+](C)c1.O=[N+]([O-])[O-]	17.9 ± 0.64	17 ± 0.61	16.2 ± 0.58	15.7 ± 0.56	15.2 ± 0.54	14.8 ± 0.53	14.1 ± 0.5							
c1ccccc1 [benzene] + CCCCCCCCn1cc[n+](C)c1.O=[N+]([O-])[O-]	0.94 ± 0.09	0.96 ± 0.09	0.97 ± 0.09	0.98 ± 0.09	0.99 ± 0.09	1 ± 0.09	1.01 ± 0.09							
CC1CCCCC1 [methylcyclohexane] + CCCCCCCCn1cc[n+](C)c1.O=[N+]([O-])[O-]	7.91 ± 0.28	7.7 ± 0.27	7.37 ± 0.26	7.11 ± 0.25	6.81 ± 0.24	6.62 ± 0.23	6.41 ± 0.23							
ClC(Cl)(Cl)Cl [tetrachloromethane] + CCCCCCCCn1cc[n+](C)c1.O=[N+]([O-])[O-]	1.16 ± 0.09	1.2 ± 0.09	1.24 ± 0.09	1.27 ± 0.1	1.3 ± 0.1	1.35 ± 0.1	1.39 ± 0.1							
CCCO [propan-1-ol] + CCCCCCCCn1cc[n+](C)c1.O=[N+]([O-])[O-]		0.41 ± 0.09	0.4 ± 0.09	0.38 ± 0.09	0.37 ± 0.09	0.36 ± 0.09	0.35 ± 0.09							
CC#N [acetonitrile] + CCCCCCCCn1cc[n+](C)c1.O=[N+]([O-])[O-]	0.6 ± 0.09	0.59 ± 0.09	0.58 ± 0.09	0.57 ± 0.09	0.56 ± 0.09	0.55 ± 0.09	0.54 ± 0.09							
CC(C)O [propan-2-ol] + CCCCCCCCn1cc[n+](C)c1.O=[N+]([O-])[O-]	0.44 ± 0.09	0.43 ± 0.09	0.43 ± 0.09	0.42 ± 0.09	0.41 ± 0.09	0.41 ± 0.09	0.4 ± 0.09							
CCOC(C)=O [ethyl acetate] + CCCCCCCCn1cc[n+](C)c1.O=[N+]([O-])[O-]	1.65 ± 0.1	1.64 ± 0.1	1.63 ± 0.1	1.63 ± 0.1	1.62 ± 0.1	1.61 ± 0.1	1.6 ± 0.1							
CCO [ethanol] + CCCCCCCCn1cc[n+](C)c1.O=[N+]([O-])[O-]	0.38 ± 0.09	0.37 ± 0.09	0.35 ± 0.09	0.34 ± 0.09	0.33 ± 0.09	0.31 ± 0.09	0.3 ± 0.09							
CCCCCCCCC [nonane] + CCCCCCCCn1cc[n+](C)c1.O=[N+]([O-])[O-]	23.1 ± 0.83	21.8 ± 0.78	20.9 ± 0.75	20.1 ± 0.72	19.6 ± 0.7	18.6 ± 0.67	18.2 ± 0.65							
CO [methanol] + CCCCCCCCn1cc[n+](C)c1.O=[N+]([O-])[O-]	0.26 ± 0.09	0.26 ± 0.09	0.25 ± 0.09	0.24 ± 0.09	0.23 ± 0.09	0.23 ± 0.09	0.22 ± 0.09							
Cc1cccc(C)c1 [1,3-dimethylbenzene] + CCCCCCCCn1cc[n+](C)c1.O=[N+]([O-])[O-]	2.02 ± 0.11	2.03 ± 0.11	2.05 ± 0.11	2.06 ± 0.11	2.07 ± 0.11	2.08 ± 0.11	2.09 ± 0.11							
CCCCCC [hexane] + CCCCCCCCn1cc[n+](C)c1.O=[N+]([O-])[O-]	12.1 ± 0.43	11.2 ± 0.4	10.5 ± 0.37	9.74 ± 0.35	9.05 ± 0.32	8.5 ± 0.3	8.16 ± 0.29							
CCCCCCC [heptane] + CCCCCCCCn1cc[n+](C)c1.O=[N+]([O-])[O-]	15.4 ± 0.55	14.3 ± 0.51	13.3 ± 0.48	12.3 ± 0.44	11.8 ± 0.42	11.2 ± 0.4	10.4 ± 0.37							
Cc1ccccc1C [1,2-dimethylbenzene] + CCCCCCCCn1cc[n+](C)c1.O=[N+]([O-])[O-]	1.75 ± 0.1	1.77 ± 0.1	1.79 ± 0.11	1.8 ± 0.11	1.82 ± 0.11	1.84 ± 0.11	1.85 ± 0.11							

— the NIST ThermoML archive (doi:10.1016/j.fluid.2012.05.006)
